Test system: frog
Test: Potency with reference to carbamylcholine at the frog neuromuscular junction, expressed as reciprocal of equipotent molar ratio
Type: functional

Work on `CC(=O)C1CC[N+](C)(C)CC1` yielded a Potency of 9.1.

With `CC(=O)C1=CC[N+](C)(C)CC1` the Potency was 50.

Work on `C[N+]1(C)CCN(C(N)=O)CC1` yielded a Potency of 0.15.

`CC(=O)N1CC[N+](C)(C)CC1` was tested, and the Potency was 2.6.

In the case of `C[N+]1(C)CCC(C(N)=O)CC1`, the Potency is reported as 0.052.

`C[N+]1(C)CC=C(C(N)=O)CC1` was tested, and the Potency was 0.77.
